System: 3D7-MR4 trophozoite parasite-infected RBCs
Assay: Metabolomic profiling (hydrophilic metabolite changes, UHPLC-MS)
Type: cell-based, Plasmodium falciparum

CC(C)(C)NCc1cc(Nc2ccnc3cc(Cl)ccc23)c2c(c1O)CCCC2 [Naphtoquine, Naphthoquine, reference compound]
changes within the set of metabolites detected (low fold change group) (10 × IC50^72h, 2.5 hr, trophozoites): did not induce major changes
Log2(fold changes) 1_3-Bisphosphoglyceric acid (metabolite 1_3-Bisphosphoglyceric acid, log2 fold change): 0.0605
Log2(fold changes) 2-Hydroxy-2-methylbutanedioic acid (metabolite 2-Hydroxy-2-methylbutanedioic acid, log2 fold change): 0.0920
Log2(fold changes) 2-Isopropylmalic acid (metabolite 2-Isopropylmalic acid, log2 fold change): 0.0000
Log2(fold changes) 2-dehydro-D-gluconate (metabolite 2-dehydro-D-gluconate, log2 fold change): -0.0605
Log2(fold changes) 2-oxo-4-methylthiobutanoate (metabolite 2-oxo-4-methylthiobutanoate, log2 fold change): 0.0000
Log2(fold changes) 2_3-Diphosphoglyceric acid (metabolite 2_3-Diphosphoglyceric acid, log2 fold change): 0.0000
Log2(fold changes) 3-phosphoglycerate (metabolite 3-phosphoglycerate, log2 fold change): 0.2077
Log2(fold changes) 3-phosphoserine (metabolite 3-phosphoserine, log2 fold change): -0.0700
Log2(fold changes) 4-Pyridoxic acid (metabolite 4-Pyridoxic acid, log2 fold change): 0.2073
Log2(fold changes) 4-aminobutyrate (metabolite 4-aminobutyrate, log2 fold change): 0.0263
Log2(fold changes) 4-phosphopantetheine (metabolite 4-phosphopantetheine, log2 fold change): 0.0000
Log2(fold changes) 4-phosphopantothenate (metabolite 4-phosphopantothenate, log2 fold change): -0.0475
Log2(fold changes) 5-aminopentanoic acid (metabolite 5-aminopentanoic acid, log2 fold change): 0.0000
Log2(fold changes) 5-methyl-THF (metabolite 5-methyl-THF, log2 fold change): 0.0000
Log2(fold changes) 5-phosphoribosyl-1-pyrophosphate (metabolite 5-phosphoribosyl-1-pyrophosphate, log2 fold change): 0.0000
Log2(fold changes) 6-phospho-D-gluconate (metabolite 6-phospho-D-gluconate, log2 fold change): 0.1085
Log2(fold changes) ADP-D-glucose (metabolite ADP-D-glucose, log2 fold change): 0.0398
Log2(fold changes) Acetyl-glycine (metabolite Acetyl-glycine, log2 fold change): 0.0000
Log2(fold changes) Acetyllysine (metabolite Acetyllysine, log2 fold change): -0.1423
Log2(fold changes) Aminoadipic acid (metabolite Aminoadipic acid, log2 fold change): 0.0000
Log2(fold changes) CDP (metabolite CDP, log2 fold change): -0.5923
Log2(fold changes) CDP-choline (metabolite CDP-choline, log2 fold change): -0.0652
Log2(fold changes) CDP-ethanolamine (metabolite CDP-ethanolamine, log2 fold change): -0.0101
Log2(fold change) of CMP (metabolite CMP): -0.1194
Log2(fold change) of CTP (metabolite CTP): 0.1369
Log2(fold changes) Citraconic acid (metabolite Citraconic acid, log2 fold change): 0.0000
Log2(fold change) of D-glucarate (metabolite D-glucarate): 0.1211
Log2(fold change) of D-gluconate (metabolite D-gluconate): 0.1168
Log2(fold change) of D-glucosamine-1/6-phosphate (metabolite D-glucosamine-1/6-phosphate): 0.0000
Log2(fold change) of D-sedoheptulose-1/7-phosphate (metabolite D-sedoheptulose-1/7-phosphate): -0.1410
Log2(fold change) of DL-Pipecolic Acid (metabolite DL-Pipecolic Acid): 0.1435
Log2(fold change) of DLH (metabolite DLH): 0.3114
Log2(fold change) of DLS (metabolite DLS): 0.0979
Log2(fold change) of Decanoyl-CoA (metabolite Decanoyl-CoA): 0.0000
Log2(fold change) of EV (metabolite EV): -0.1292
Log2(fold change) of FAD (metabolite FAD): 0.0352
Log2(fold change) of FMN (metabolite FMN): 0.1758
Log2(fold change) of G3P/DHAP (metabolite G3P/DHAP): 0.0000
Log2(fold change) of GDP (metabolite GDP): -0.5345
Log2(fold change) GMP (metabolite GMP): 0.0470
Log2(fold change) GTP (metabolite GTP): 0.0942
Log2(fold change) HVDD (metabolite HVDD): 0.0000
Log2(fold change) Hexose (metabolite Hexose): 0.0000
Log2(fold change) Hydroxyisocaproic acid (metabolite Hydroxyisocaproic acid): 0.0000
Log2(fold change) IDP (metabolite IDP): 0.0737
Log2(fold change) IMP (metabolite IMP): -0.0394
Log2(fold change) Inositol (metabolite Inositol): 0.0000
Log2(fold change) Isopentyl-PP (metabolite Isopentyl-PP): 0.0000
Log2(fold change) L-arginino-succinate (metabolite L-arginino-succinate): -0.0233
Log2(fold change) LD (metabolite LD): 0.1467
Log2(fold change) Myristoyl/tetradecanoyl-CoA (metabolite Myristoyl/tetradecanoyl-CoA): 0.0252
Log2(fold change) N-Acetyl-L-alanine (metabolite N-Acetyl-L-alanine): 0.1261
Log2(fold change) N-acetyl-L-ornithine (metabolite N-acetyl-L-ornithine): -0.0214
Log2(fold change) N-acetyl-glucosamine-1/6-phosphate (metabolite N-acetyl-glucosamine-1/6-phosphate): 0.0000
Log2(fold change) N-acetyl-glutamate (metabolite N-acetyl-glutamate): 0.0412
Log2(fold change) N-acetyl-glutamine (metabolite N-acetyl-glutamine): 0.0000
Log2(fold change) N-carbamoyl-L-aspartate (metabolite N-carbamoyl-L-aspartate): 0.0625
Log2(fold change) NAD+ (metabolite NAD+): -0.0154
Log2(fold change) NADH (metabolite NADH): 0.0000
Log2(fold change) NADP+ (metabolite NADP+): 0.0692
Log2(fold change) NADPH (metabolite NADPH): -0.1981
Log2(fold change) O-acetyl-L-serine (metabolite O-acetyl-L-serine): 0.0000
Log2(fold change) Octoluse 8/1P (metabolite Octoluse 8/1P): -0.0241
Log2(fold change) Octoluse Bisphosphate (metabolite Octoluse Bisphosphate): 0.0717
Log2(fold change) PD (metabolite PD): 0.0223
Log2(fold change) PE (metabolite PE): 0.1349
Log2(fold change) PEE (metabolite PEE): 0.2438
Log2(fold change) PEEK (metabolite PEEK): 0.3424
Log2(fold change) PVNF (metabolite PVNF): 0.2854
Log2(fold change) Pyroglutamic acid (metabolite Pyroglutamic acid): -0.2488
Log2(fold change) Pyrophosphate (metabolite Pyrophosphate): 0.0000
Log2(fold change) Ribose-5-phosphate (metabolite Ribose-5-phosphate): 0.1278
Log2(fold change) S-adenosyl-L-homocysteine (metabolite S-adenosyl-L-homocysteine): -0.2617
Log2(fold change) S-adenosyl-L-methioninamine (metabolite S-adenosyl-L-methioninamine): 0.0000
Log2(fold change) S-adenosyl-L-methionine (metabolite S-adenosyl-L-methionine): 0.0000
Log2(fold change) S-methyl-5'-thioadenosine (metabolite S-methyl-5'-thioadenosine): 0.0070
Log2(fold change) SD (metabolite SD): 0.1296
Log2(fold change) SDL (metabolite SDL): 0.0391
Log2(fold change) SID (metabolite SID): 0.2783
Log2(fold change) Sedoheptulose bisphosphate (metabolite Sedoheptulose bisphosphate): 0.1433
Log2(fold change) Thiamine pyrophosphate (metabolite Thiamine pyrophosphate): 0.0526
Log2(fold changes) UDP-D-glucose (metabolite UDP-D-glucose, log2 fold change): 0.0961
Log2(fold changes) UDP-D-glucuronate (metabolite UDP-D-glucuronate, log2 fold change): 0.1278
Log2(fold changes) UDP-N-acetyl-glucosamine (metabolite UDP-N-acetyl-glucosamine, log2 fold change): 0.0189
Log2(fold changes) UDP (metabolite UDP, log2 fold change): -0.6136
Log2(fold changes) UMP (metabolite UMP, log2 fold change): -0.1186
Log2(fold changes) UTP (metabolite UTP, log2 fold change): 0.1051
Log2(fold changes) VD (metabolite VD, log2 fold change): 0.0754
Log2(fold changes) Xanthurenic acid (metabolite Xanthurenic acid, log2 fold change): 0.0000
Log2(fold changes) a-ketoglutarate (metabolite a-ketoglutarate, log2 fold change): 0.1610
Log2(fold changes) acetyl-CoA (metabolite acetyl-CoA, log2 fold change): 0.1670
Log2(fold changes) acetyl-aspartate (metabolite acetyl-aspartate, log2 fold change): 0.0000
Log2(fold changes) acetylphosphate (metabolite acetylphosphate, log2 fold change): 0.0000
Log2(fold changes) aconitate (metabolite aconitate, log2 fold change): 0.1208
Log2(fold changes) adenine (metabolite adenine, log2 fold change): 0.0000
Log2(fold changes) adenosine 5'-phosphosulfate (metabolite adenosine 5'-phosphosulfate, log2 fold change): 0.0000

Reference: publication PMC7031696 (Cell chemical biology, 2019)
